Active and inactive are the calls of the source. For most assays here, no stated cut-off is given here; in the data, actives have a measured Kd and inactives only a lower limit.
Legend:
[1] = molecular target: Cyclin-dependent kinase 13 (Homo sapiens, UniProt Q14004)
[2] = molecular target: T1, ADP/ATP translocase 3 (Homo sapiens, UniProt P12236)
T1 sequence (P12236 whole entry): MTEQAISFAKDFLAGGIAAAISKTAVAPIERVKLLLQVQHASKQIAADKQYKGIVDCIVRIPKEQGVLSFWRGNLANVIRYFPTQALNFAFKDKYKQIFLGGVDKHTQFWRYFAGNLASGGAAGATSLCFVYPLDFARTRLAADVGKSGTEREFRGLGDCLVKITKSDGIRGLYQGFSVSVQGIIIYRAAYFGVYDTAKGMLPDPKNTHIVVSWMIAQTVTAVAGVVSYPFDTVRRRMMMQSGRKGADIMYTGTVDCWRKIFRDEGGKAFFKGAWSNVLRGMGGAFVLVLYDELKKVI

[3] = molecular target: T2, Inhibitor of nuclear factor kappa-B kinase subunit epsilon (Homo sapiens, UniProt Q14164)
T2 sequence (Q14164 whole entry): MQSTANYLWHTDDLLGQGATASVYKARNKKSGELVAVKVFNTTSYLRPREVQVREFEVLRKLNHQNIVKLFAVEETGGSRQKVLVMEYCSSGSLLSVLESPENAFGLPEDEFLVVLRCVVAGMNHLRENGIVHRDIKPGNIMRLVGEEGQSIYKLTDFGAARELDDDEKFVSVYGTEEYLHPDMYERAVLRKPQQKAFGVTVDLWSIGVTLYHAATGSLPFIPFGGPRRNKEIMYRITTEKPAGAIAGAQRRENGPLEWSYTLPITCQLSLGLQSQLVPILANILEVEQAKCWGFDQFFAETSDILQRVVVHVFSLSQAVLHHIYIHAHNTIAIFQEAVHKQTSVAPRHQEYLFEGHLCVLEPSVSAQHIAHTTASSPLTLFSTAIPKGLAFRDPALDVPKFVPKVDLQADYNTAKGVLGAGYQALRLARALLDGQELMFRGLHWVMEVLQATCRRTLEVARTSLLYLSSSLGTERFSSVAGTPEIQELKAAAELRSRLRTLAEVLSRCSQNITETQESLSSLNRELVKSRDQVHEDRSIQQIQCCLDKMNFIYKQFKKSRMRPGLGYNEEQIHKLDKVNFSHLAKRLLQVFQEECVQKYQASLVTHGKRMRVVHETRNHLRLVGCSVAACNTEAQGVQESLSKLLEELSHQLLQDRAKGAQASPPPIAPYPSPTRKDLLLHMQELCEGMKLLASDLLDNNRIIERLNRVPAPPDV

[4] = molecular target: Serine/threonine-protein kinase 16 (Homo sapiens, UniProt O75716)
[5] = molecular target: T3, Scaffold protein ILK (Homo sapiens, UniProt Q13418)
T3 sequence (Q13418 whole entry): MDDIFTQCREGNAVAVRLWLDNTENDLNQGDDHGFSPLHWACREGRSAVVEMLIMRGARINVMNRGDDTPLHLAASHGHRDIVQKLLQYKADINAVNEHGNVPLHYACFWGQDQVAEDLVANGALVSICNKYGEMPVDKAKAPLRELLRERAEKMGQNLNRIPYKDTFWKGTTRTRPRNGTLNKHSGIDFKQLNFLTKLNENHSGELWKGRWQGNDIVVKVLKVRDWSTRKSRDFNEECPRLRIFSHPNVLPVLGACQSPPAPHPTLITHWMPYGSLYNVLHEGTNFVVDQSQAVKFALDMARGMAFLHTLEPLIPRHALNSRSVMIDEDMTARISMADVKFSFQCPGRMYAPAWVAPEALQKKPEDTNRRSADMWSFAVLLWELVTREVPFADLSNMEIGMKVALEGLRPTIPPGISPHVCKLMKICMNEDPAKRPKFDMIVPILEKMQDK

[6] = molecular target: MAP kinase-activated protein kinase 2 (Homo sapiens, UniProt P49137)
[7] = molecular target: T4, Acyl-CoA dehydrogenase family member 11 (Homo sapiens, UniProt Q709F0)
T4 sequence (Q709F0 whole entry): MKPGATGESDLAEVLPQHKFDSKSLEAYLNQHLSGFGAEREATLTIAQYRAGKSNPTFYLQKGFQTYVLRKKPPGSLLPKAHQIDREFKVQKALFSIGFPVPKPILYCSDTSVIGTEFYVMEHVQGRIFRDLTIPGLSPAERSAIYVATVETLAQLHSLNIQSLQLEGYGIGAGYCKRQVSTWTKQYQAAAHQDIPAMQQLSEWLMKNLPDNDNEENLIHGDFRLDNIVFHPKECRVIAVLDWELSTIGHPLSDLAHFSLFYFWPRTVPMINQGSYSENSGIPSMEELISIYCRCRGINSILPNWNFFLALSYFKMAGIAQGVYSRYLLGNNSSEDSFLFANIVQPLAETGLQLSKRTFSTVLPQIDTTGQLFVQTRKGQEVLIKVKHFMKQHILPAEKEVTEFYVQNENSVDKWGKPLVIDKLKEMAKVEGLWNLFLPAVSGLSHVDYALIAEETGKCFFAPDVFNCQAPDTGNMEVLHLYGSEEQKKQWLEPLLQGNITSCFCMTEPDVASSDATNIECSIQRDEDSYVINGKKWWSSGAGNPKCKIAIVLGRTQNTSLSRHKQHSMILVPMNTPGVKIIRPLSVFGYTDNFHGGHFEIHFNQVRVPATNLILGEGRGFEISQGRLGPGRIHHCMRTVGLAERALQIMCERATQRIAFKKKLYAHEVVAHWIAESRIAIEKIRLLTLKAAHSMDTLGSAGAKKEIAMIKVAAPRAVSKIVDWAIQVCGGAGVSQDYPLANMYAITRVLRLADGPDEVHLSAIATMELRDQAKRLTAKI

[8] = molecular target: Protein kinase C delta type (Homo sapiens, UniProt Q05655)
[9] = molecular target: Receptor-interacting serine/threonine-protein kinase 2 (Homo sapiens, UniProt O43353)
[10] = molecular target: Ephrin type-A receptor 4 (Homo sapiens, UniProt P54764)
Ephrin type-A receptor 4, sequence (P54764 whole entry): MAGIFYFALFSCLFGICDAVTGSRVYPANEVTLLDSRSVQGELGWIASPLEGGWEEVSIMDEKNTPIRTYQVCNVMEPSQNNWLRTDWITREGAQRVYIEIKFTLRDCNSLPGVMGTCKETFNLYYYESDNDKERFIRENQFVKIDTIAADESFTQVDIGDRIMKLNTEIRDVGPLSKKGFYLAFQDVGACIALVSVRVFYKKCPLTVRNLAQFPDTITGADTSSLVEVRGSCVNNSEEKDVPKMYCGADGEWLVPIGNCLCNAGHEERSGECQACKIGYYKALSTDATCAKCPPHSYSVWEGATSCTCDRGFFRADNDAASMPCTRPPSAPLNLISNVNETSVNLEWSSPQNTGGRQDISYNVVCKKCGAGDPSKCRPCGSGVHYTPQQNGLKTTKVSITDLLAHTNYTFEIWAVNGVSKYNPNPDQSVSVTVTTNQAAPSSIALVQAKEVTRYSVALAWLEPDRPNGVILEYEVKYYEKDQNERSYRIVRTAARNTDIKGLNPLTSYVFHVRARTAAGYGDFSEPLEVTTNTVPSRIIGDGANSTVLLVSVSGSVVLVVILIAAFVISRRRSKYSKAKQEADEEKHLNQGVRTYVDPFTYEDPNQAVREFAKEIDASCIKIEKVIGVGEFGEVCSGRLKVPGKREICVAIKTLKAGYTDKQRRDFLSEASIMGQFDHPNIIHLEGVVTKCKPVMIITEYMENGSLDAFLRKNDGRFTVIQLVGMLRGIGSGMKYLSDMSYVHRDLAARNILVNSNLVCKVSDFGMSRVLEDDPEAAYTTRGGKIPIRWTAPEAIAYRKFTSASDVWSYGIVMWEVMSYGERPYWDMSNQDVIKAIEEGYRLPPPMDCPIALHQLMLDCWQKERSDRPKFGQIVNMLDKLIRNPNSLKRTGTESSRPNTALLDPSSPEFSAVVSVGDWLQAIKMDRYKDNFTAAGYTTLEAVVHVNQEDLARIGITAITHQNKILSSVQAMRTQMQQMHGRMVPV

MAP kinase-activated protein kinase 2, sequence (P49137 whole entry): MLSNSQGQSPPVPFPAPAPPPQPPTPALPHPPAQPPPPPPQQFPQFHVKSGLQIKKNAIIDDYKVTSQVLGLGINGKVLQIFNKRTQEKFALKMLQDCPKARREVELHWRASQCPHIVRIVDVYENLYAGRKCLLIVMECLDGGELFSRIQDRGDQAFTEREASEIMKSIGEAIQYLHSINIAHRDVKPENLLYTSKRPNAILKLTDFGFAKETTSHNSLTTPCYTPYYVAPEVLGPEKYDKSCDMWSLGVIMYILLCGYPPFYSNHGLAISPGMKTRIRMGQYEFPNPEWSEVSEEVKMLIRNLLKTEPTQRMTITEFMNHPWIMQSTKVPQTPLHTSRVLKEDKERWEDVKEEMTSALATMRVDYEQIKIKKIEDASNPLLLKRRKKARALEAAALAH
Protein kinase C delta type, sequence (Q05655 whole entry): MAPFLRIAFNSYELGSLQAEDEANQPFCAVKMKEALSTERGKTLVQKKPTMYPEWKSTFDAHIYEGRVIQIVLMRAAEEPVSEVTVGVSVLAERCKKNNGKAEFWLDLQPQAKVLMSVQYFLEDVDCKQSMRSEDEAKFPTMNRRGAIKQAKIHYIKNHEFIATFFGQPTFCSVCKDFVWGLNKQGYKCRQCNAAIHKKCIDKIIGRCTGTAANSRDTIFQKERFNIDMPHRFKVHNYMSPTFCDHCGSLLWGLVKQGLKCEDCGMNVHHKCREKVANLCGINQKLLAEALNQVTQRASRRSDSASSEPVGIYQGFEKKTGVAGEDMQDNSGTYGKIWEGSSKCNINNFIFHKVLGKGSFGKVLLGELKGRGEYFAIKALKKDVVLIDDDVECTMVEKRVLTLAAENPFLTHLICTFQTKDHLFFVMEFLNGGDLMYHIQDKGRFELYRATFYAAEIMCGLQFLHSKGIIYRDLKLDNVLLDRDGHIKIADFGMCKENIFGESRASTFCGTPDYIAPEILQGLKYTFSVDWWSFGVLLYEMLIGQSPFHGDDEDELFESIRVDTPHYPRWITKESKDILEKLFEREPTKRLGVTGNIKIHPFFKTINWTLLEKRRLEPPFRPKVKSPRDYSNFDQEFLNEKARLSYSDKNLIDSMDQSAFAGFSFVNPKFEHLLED
Receptor-interacting serine/threonine-protein kinase 2, sequence (O43353 whole entry): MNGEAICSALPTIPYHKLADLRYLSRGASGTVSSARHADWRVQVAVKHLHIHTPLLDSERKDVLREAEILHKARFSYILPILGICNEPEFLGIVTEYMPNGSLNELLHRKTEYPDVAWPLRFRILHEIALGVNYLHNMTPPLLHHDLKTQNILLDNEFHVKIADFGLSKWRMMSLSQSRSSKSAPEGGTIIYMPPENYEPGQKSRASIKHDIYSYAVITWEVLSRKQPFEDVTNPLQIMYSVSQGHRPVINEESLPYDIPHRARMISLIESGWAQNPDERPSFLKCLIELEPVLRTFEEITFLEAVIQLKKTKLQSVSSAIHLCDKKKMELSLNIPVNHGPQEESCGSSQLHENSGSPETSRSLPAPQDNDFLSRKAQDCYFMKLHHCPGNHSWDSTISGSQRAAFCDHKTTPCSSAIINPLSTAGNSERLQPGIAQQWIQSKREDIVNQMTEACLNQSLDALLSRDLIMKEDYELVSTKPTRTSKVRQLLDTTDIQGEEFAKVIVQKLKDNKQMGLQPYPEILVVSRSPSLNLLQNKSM
Serine/threonine-protein kinase 16, sequence (O75716 whole entry): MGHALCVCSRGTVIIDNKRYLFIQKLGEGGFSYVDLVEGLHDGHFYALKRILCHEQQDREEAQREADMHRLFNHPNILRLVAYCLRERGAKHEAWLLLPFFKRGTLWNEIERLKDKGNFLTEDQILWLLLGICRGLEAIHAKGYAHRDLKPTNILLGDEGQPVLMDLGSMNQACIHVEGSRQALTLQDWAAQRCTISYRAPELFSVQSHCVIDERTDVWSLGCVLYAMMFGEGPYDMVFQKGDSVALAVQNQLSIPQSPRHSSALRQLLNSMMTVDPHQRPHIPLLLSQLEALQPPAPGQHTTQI
Cyclin-dependent kinase 13, sequence (Q14004 whole entry): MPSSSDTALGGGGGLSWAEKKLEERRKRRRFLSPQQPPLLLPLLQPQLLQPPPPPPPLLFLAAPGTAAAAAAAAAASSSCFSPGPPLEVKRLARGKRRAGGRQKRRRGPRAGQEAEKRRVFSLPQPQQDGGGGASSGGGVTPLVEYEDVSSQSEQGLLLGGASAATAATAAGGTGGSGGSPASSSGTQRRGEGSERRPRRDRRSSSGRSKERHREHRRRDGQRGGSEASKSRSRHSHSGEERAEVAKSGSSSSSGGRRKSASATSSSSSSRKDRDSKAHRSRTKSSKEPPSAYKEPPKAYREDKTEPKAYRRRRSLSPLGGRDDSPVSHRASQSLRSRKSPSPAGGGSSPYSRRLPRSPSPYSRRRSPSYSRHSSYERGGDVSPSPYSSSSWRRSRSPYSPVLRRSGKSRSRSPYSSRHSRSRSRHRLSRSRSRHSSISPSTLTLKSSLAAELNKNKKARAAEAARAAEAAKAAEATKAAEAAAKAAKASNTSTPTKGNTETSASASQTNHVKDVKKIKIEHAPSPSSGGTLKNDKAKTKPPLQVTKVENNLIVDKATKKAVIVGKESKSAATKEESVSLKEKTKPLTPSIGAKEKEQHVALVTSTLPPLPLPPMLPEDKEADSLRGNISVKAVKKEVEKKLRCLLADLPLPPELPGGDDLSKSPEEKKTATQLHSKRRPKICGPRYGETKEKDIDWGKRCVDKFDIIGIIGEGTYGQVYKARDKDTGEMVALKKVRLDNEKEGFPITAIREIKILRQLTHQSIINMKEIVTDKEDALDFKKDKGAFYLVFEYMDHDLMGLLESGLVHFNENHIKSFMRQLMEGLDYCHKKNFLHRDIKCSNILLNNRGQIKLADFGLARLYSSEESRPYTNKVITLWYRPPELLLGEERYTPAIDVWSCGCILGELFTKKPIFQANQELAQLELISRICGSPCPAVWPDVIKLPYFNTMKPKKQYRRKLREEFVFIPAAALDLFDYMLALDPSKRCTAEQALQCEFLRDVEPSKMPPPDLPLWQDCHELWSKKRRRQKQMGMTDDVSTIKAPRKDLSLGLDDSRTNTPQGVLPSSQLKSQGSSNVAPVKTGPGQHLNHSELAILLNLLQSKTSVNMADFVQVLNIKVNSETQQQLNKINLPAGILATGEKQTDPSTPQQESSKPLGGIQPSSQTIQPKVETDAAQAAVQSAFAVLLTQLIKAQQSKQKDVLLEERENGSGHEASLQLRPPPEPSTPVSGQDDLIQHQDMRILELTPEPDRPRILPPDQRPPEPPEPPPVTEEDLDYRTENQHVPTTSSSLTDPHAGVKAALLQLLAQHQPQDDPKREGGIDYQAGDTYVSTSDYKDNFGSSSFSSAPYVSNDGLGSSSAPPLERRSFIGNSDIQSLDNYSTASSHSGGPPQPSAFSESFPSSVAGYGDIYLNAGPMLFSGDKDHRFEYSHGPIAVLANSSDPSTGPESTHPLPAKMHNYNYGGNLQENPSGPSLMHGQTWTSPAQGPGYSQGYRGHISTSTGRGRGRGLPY

Kd [1] | Kd [2] | Kd [3] | Kd [4] | Kd [5] | Kd [6] | Kd [7] | Kd [8] | Kd [9] | Kd [10] | Structure (SMILES)
> 30 µM (inactive) | > 30 µM (inactive) | > 30 µM (inactive) | > 30 µM (inactive) | > 30 µM (inactive) | > 30 µM (inactive) | > 30 µM (inactive) | > 30 µM (inactive) | > 30 µM (inactive) | > 30 µM (inactive) | O=C(NC[C@H](O)CO)c1ccncc1Nc1ccc(I)cc1F [PIMASERTIB]
> 30 µM (inactive) | > 30 µM (inactive) | > 30 µM (inactive) | > 30 µM (inactive) | > 30 µM (inactive) | > 30 µM (inactive) | > 30 µM (inactive) | > 30 µM (inactive) | > 30 µM (inactive) | > 30 µM (inactive) | O=C(Nc1ccc(OC(F)(F)F)cc1)c1sccc1NCc1ccnc2ccccc12 [OSI-930]
> 30 µM (inactive) | > 30 µM (inactive) | > 30 µM (inactive) | > 30 µM (inactive) | > 30 µM (inactive) | > 30 µM (inactive) | > 30 µM (inactive) | > 30 µM (inactive) | > 30 µM (inactive) | > 30 µM (inactive) | O=C(NOC[C@H](O)CO)c1ccc(F)c(F)c1Nc1ccc(I)cc1F [MIRDAMETINIB]
> 30 µM (inactive) | > 30 µM (inactive) | > 30 µM (inactive) | > 30 µM (inactive) | 0.032 µM | > 30 µM (inactive) |  | > 30 µM (inactive) | > 30 µM (inactive) | > 30 µM (inactive) | CNC(=O)c1cc(COc2nnc(Nc3ccc(Cl)cc3)c3ccoc23)ccn1 [TELATINIB]
> 30 µM (inactive) | > 30 µM (inactive) | > 30 µM (inactive) | > 30 µM (inactive) | > 30 µM (inactive) | > 30 µM (inactive) | > 30 µM (inactive) | > 30 µM (inactive) | > 30 µM (inactive) | > 30 µM (inactive) | COc1ccc(-c2ccc3ncc4c(c3c2)n(-c2ccc(N3CCNCC3)c(C(F)(F)F)c2)c(=O)n4C)cn1 [BGT-226 FREE BASE]
> 30 µM (inactive) | > 30 µM (inactive) | > 30 µM (inactive) | > 30 µM (inactive) | > 30 µM (inactive) | > 30 µM (inactive) | > 30 µM (inactive) | > 30 µM (inactive) | > 30 µM (inactive) | > 30 µM (inactive) | FC(F)(F)c1ccc(CNc2ccc(Cc3c[nH]c4ncc(Cl)cc34)cn2)cn1 [PEXIDARTINIB]
> 30 µM (inactive) | > 30 µM (inactive) | > 30 µM (inactive) | > 30 µM (inactive) | > 30 µM (inactive) | > 30 µM (inactive) | > 30 µM (inactive) | > 30 µM (inactive) | > 30 µM (inactive) | > 30 µM (inactive) | S=C(NCc1ccc2c(c1)OCO2)N1CCN(c2ncnc3c2oc2ccccc23)CC1 [AMUVATINIB]
> 30 µM (inactive) | > 30 µM (inactive) | > 30 µM (inactive) | > 30 µM (inactive) | > 30 µM (inactive) | > 30 µM (inactive) | > 30 µM (inactive) | > 30 µM (inactive) | > 30 µM (inactive) | > 30 µM (inactive) | Cc1cc(Nc2nc(N[C@@H](C)c3ncc(F)cn3)ncc2Cl)n[nH]1 [AZD-1480]
> 30 µM (inactive) | > 30 µM (inactive) | > 30 µM (inactive) | 0.495 µM (active) |  | > 30 µM (inactive) | > 30 µM (inactive) | 0.795 µM (active) | > 30 µM (inactive) | > 30 µM (inactive) | CCN1CCN(Cc2ccc(Nc3ncc(F)c(-c4cc(F)c5nc(C)n(C(C)C)c5c4)n3)nc2)CC1 [ABEMACICLIB]
> 30 µM (inactive) | > 30 µM (inactive) | > 30 µM (inactive) | > 30 µM (inactive) | > 30 µM (inactive) | > 30 µM (inactive) |  | > 30 µM (inactive) | > 30 µM (inactive) | > 30 µM (inactive) | O=c1[nH]c([C@@H]2CCCN2)nc2c1oc1ccc(Cl)cc12
> 30 µM (inactive) | > 30 µM (inactive) | > 30 µM (inactive) | > 30 µM (inactive) | > 30 µM (inactive) | 5.3 µM (active) |  | > 30 µM (inactive) | > 30 µM (inactive) | > 30 µM (inactive) | O=C(O)c1ccc2c(c1)nc(Nc1cccc(Cl)c1)c1ccncc12 [SILMITASERTIB]
> 30 µM (inactive) | > 30 µM (inactive) | > 30 µM (inactive) | > 30 µM (inactive) |  | 0.934 µM (active) | > 30 µM (inactive) | > 30 µM (inactive) | > 30 µM (inactive) | > 30 µM (inactive) | O[C@H]1CC[C@H](Nc2ncc3nc(Nc4c(F)cc(F)cc4F)n([C@H]4CCOC4)c3n2)CC1 [TANZISERTIB]

Structure (SMILES) | Kd [1] | Kd [2] | Kd [3] | Kd [4] | Kd [5] | Kd [6] | Kd [7] | Kd [8] | Kd [9] | Kd [10]
N#CCNC(=O)c1ccc(-c2ccnc(Nc3ccc(N4CCOCC4)cc3)n2)cc1 [MOMELOTINIB] | > 30 µM (inactive) | > 30 µM (inactive) | 0.2 µM (active) | 1.28 µM (active) | > 30 µM (inactive) | > 30 µM (inactive) | > 30 µM (inactive) | > 30 µM (inactive) | > 30 µM (inactive) | > 30 µM (inactive)
COc1cc(F)c(F)c(Nc2ccc(I)cc2F)c1NS(=O)(=O)C1(C[C@H](O)CO)CC1 [REFAMETINIB] | > 30 µM (inactive) | > 30 µM (inactive) | > 30 µM (inactive) | > 30 µM (inactive) |  | > 30 µM (inactive) | > 30 µM (inactive) | > 30 µM (inactive) | > 30 µM (inactive) | > 30 µM (inactive)
NC[C@@](O)(c1ccc(Cl)cc1)c1ccc(-c2cn[nH]c2)cc1 [AT-13148] | > 30 µM (inactive) |  | > 30 µM (inactive) | > 30 µM (inactive) | > 30 µM (inactive) | > 30 µM (inactive) | > 30 µM (inactive) | 0.044 µM (active) | > 30 µM (inactive) | > 30 µM (inactive)
C=CC(=O)Nc1cc(Nc2nccc(-c3cn(C)c4ccccc34)n2)c(OC)cc1N(C)CCN(C)C [OSIMERTINIB] | > 30 µM (inactive) | > 30 µM (inactive) | > 30 µM (inactive) | > 30 µM (inactive) | > 30 µM (inactive) | > 30 µM (inactive) |  | > 30 µM (inactive) | > 30 µM (inactive) | > 30 µM (inactive)
